Assay results taken from patent publication US10208033B2, “β-carboline, dihydro-β-carboline and tetrahydro-β-carboline alkaloid derivatives and preparation methods same and use in aspects of preventing and treating plant viruses, fungicides and insecticides” (NANKAI UNIVERSITY, priority 2013, dated 2019).

Experiments:
[1] = test system: tobacco mosaic virus (TMV); test: Anti-TMV in vitro effect (half-leaf soaking); assay type: cell-based, tobacco mosaic virus (host Nicotiana tabacum L.cv.Xanthi NN); conditions: Tobacco mosaic virus, read-out: Relative inhibition rate (%) In vitro activity; for inhibition at 100 µg/mL: treatment dose 100 μg/mL; for inhibition at 500 µg/mL: treatment dose 500 μg/mL
[2] = test system: tobacco mosaic virus (TMV); test: Anti-TMV in vivo inactivation; set-up: species or system tobacco mosaic virus (host Nicotiana tabacum L.cv.Xanthi NN); conditions: Tobacco mosaic virus, read-out: Relative inhibition rate (%) In vivo inactivation; for inhibition at 100 µg/mL: treatment dose 100 μg/mL; for inhibition at 500 µg/mL: treatment dose 500 μg/mL
[3] = test system: tobacco mosaic virus (TMV); test: Anti-TMV in vivo therapeutic effect; set-up: species or system tobacco mosaic virus (host Nicotiana tabacum L.cv.Xanthi NN); conditions: Tobacco mosaic virus, read-out: Relative inhibition rate (%) In vivo therapy; for inhibition at 100 µg/mL: treatment dose 100 μg/mL; for inhibition at 500 µg/mL: treatment dose 500 μg/mL
[4] = test system: tobacco mosaic virus (TMV); test: Anti-TMV in vivo protective effect; set-up: species or system tobacco mosaic virus (host Nicotiana tabacum L.cv.Xanthi NN); conditions: Tobacco mosaic virus, read-out: Relative inhibition rate (%) In vivo protection; for inhibition at 100 µg/mL: treatment dose 100 μg/mL; for inhibition at 500 µg/mL: treatment dose 500 μg/mL
[5] = test system: cucumber fusarium wilt; test: Fungicidal (bactericidal) activity in vitro, PDA colony diameter; assay type: cell-based; conditions: Fusarium, 96 h; 50 mg/kg
[6] = test system: Cercospora arachidicola; test: as above; assay type: cell-based; conditions: Mycosphaerella arachidis, 96 h; 50 mg/kg
[7] = test system: Macrophoma kawatsukai; test: as above; assay type: cell-based; conditions: 50 mg/kg
[8] = test system: Alternaria solani; test: as above; assay type: cell-based; conditions: Alternaria solani, 96 h; 50 mg/kg
[9] = test system: Fusarium graminearumt; test: microbe, parasite or virus in culture; assay type: cell-based; conditions: Fusarium, 96 h, read-out: Bactericidal activity (%) Fusarium graminearumt
[10] = test system: potato late blight; test: microbe, parasite or virus in culture; assay type: cell-based; conditions: Phytophthora infestans, 96 h, read-out: Bactericidal activity (%) potato late blight
[11] = test system: Sclerotinia scleotiorum; test: Fungicidal (bactericidal) activity in vitro, PDA colony diameter; assay type: cell-based; conditions: Sclerotinia, 96 h; 50 mg/kg
[12] = test system: Botrytis cinerea; test: as above; assay type: cell-based; conditions: Botrytis cinerea, 96 h; 50 mg/kg
[13] = test system: Rhizoctonia solani; test: as above; assay type: cell-based; conditions: Rhizoctonia solani, 96 h; 50 mg/kg
[14] = test system: Phytophthora capsici; test: as above; assay type: cell-based; conditions: Phytophthora capsici, 96 h; 50 mg/kg
[15] = test system: Fusarium fujikuroi; test: as above; assay type: cell-based; conditions: Fusarium fujikuroi, 96 h; 50 mg/kg
[16] = test system: Rhizoctonia cereali; test: as above; assay type: cell-based; conditions: Rhizoctonia, 96 h; 50 mg/kg
[17] = test system: Bipolaria maydis; test: organism not typed; assay type: cell-based; conditions: read-out: Bactericidal activity (%) Bipolaria maydis
[18] = test system: Colletotrichum orbiculare; test: Fungicidal (bactericidal) activity in vitro, PDA colony diameter; assay type: cell-based; conditions: Colletotrichum orbiculare, 96 h; 50 mg/kg
[19] = test system: armyworms; assay type: in vivo; conditions: concentration 600 mg/kg
[20] = test system: cotton bollworms; test: whole plant or invertebrate; conditions: Helicoverpa armigera, in Gossypium hirsutum, read-out: Cotton bollworm Mortality (%)
Method: Experimental method of cotton bollworms: feed and drug mixing method: measure 3 mL of prepared solution and add it to about 27 g of newly prepared feed, thereby obtaining needed concentration through dilution by 10 times.

[21] = test system: mosquito larvae; test: whole plant or invertebrate; conditions: Culex pipiens, 24 h, read-out: Mosquito larvae Mortality (%)
In short: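 Early fourth-instar Culex pipiens pallens larvae from an indoor colony, 10 per beaker, exposed to test compound at 5 ppm in water, diluted from a 1000 ppm acetone mother solution. Blank: water containing 0.5 mL test solvent.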

[22] = test system: corn borers; test: whole plant or invertebrate; conditions: read-out: Corn borer Mortality (%)

| SMILES | inhibition at 100 µg/mL [1] [%] | inhibition at 500 µg/mL [1] [%] | inhibition at 100 µg/mL [2] [%] | inhibition at 500 µg/mL [2] [%] | inhibition at 100 µg/mL [3] [%] | inhibition at 500 µg/mL [3] [%] | inhibition at 100 µg/mL [4] [%] | inhibition at 500 µg/mL [4] [%] | inhibition of growth at 50 mg/kg [5] [%] | inhibition of growth at 50 mg/kg [6] [%] | inhibition at 50 mg/kg [7] [%] | inhibition of growth at 50 mg/kg [8] [%] | inhibition of growth at 50 mg/kg [9] [%] | inhibition of growth at 50 mg/kg [10] [%] | inhibition of growth at 50 mg/kg [11] [%] | inhibition of growth at 50 mg/kg [12] [%] | inhibition of growth at 50 mg/kg [13] [%] | inhibition of growth at 50 mg/kg [14] [%] | inhibition of growth at 50 mg/kg [15] [%] | inhibition of growth at 50 mg/kg [16] [%] | also measured |
| --- | --- | --- | --- | --- | --- | --- | --- | --- | --- | --- | --- | --- | --- | --- | --- | --- | --- | --- | --- | --- | --- |
| Cc1nccc2c1[nH]c1cc(OC(=O)[C@@H](NC(=O)OCc3ccccc3)C(C)C)ccc12 [Ia-9] | 0 | 20.7 | 0 | 13.6 | 0 | 12.5 | 0 | 19.6 | 38.5 | 61.5 | 78.6 | 36.8 | 35.7 | 45.5 | 13.7 | 51.5 | 52.6 | 50 | 21.4 | 84.2 | inhibition at 50 mg/kg [17]: 36.4%; inhibition of growth at 50 mg/kg [18]: 50%; Armyworm Mortality (%) [19]: 5%; mortality at 600 mg/kg [20]: 20%; mortality at 10 mg/kg [21]: 25%; mortality at 600 mg/kg [22]: 5% |
| Cc1nc(C(=O)O)cc2c1[nH]c1ccccc12 [Ia-11, 1-methyl-pyridino [3,4-b] indol-3-formic acid] | 0 | 32.5 | 0 | 27.3 | 0 | 29.6 | 0 | 21.4 | 19.1 | 50 | 82.4 | 33.3 | 35.7 | 25 | 72 | 63.6 | 42.9 | 60.6 | 35.7 | 53.1 | inhibition at 50 mg/kg [17]: 21.1%; inhibition of growth at 50 mg/kg [18]: 38.1%; Armyworm Mortality (%) [19]: 10%; mortality at 600 mg/kg [20]: 10%; mortality at 10 mg/kg [21]: 50%; mortality at 600 mg/kg [22]: 10% |
| C[C@@H]1N[C@H](C(=O)O)Cc2c1[nH]c1ccccc21 [Ib-1, (1S, 3S)-1-methyl-2,3,4,9-tetrahydropyridino [3,4-b] indol-3-formic acid] | 18.9 | 41.6 | 13.5 | 35.5 | 15.8 | 40.4 | 20 | 41.3 | 19.2 | 30.8 | 23.8 | 21.1 | 26.2 | 27.3 | 7.8 | 21.2 | 26.3 | 18.8 | 21.4 | 42.1 | inhibition at 50 mg/kg [17]: 22.7%; inhibition of growth at 50 mg/kg [18]: 35.7%; Armyworm Mortality (%) [19]: 25%; mortality at 600 mg/kg [20]: 25%; mortality at 10 mg/kg [21]: 55%; mortality at 600 mg/kg [22]: 25% |
| C[C@H]1N[C@@H](C(=O)O)Cc2c1[nH]c1ccccc21 [Ib-2, (1R,3R)-1-methyl-2,3,4,9-tetrahydropyridino [3,4-b] indol-3-formic acid] | 0 | 25 | 0 | 28.6 | 0 | 31.5 | 0 | 29.7 | 23.1 | 61.5 | 23.8 | 0 | 21.4 | 4.6 | 23.5 | 18.2 | 29 | 15.6 | 0 | 31.6 | inhibition at 50 mg/kg [17]: 9.1%; inhibition of growth at 50 mg/kg [18]: 25%; Armyworm Mortality (%) [19]: 10%; mortality at 600 mg/kg [20]: 25%; mortality at 10 mg/kg [21]: 30%; mortality at 600 mg/kg [22]: 10% |
| O=C(O)[C@@H]1Cc2c([nH]c3ccccc23)[C@H](c2ccccc2)N1 [Ib-5, (1S, 3S)-1-phenyl-2,3,4,9-tetrahydropyridino [3,4-b] indol-3-formic acid] | 0 | 19.7 | 0 | 27.6 | 0 | 24.3 | 0 | 32.3 | 19.2 | 69.2 | 11.9 | 15.8 | 26.2 | 22.7 | 9.8 | 21.2 | 36.8 | 12.5 | 42.9 | 44.7 | inhibition at 50 mg/kg [17]: 22.7%; inhibition of growth at 50 mg/kg [18]: 35.7%; Armyworm Mortality (%) [19]: 50%; mortality at 600 mg/kg [20]: 30%; mortality at 5 mg/kg [21]: 30%; mortality at 10 mg/kg [21]: 100%; mortality at 600 mg/kg [22]: 35% |
| C[C@@H]1N[C@H](C(=O)NC2CCCCC2)Cc2c1[nH]c1ccccc21 [Ib-17, (1S, 3S)—N-cyclohexyl-1-methyl-2,3,4,9-tetrahydro-pyridino [3,4-b] indol-3-formamide] | 0 | 38.8 | 12.3 | 43.3 | 15.1 | 44.6 | 14.2 | 37.1 | 34.6 | 69.2 | 47.6 | 52.6 | 59.5 | 31.8 | 33.3 | 27.3 | 50 | 37.5 | 28.6 | 71.1 | inhibition at 50 mg/kg [17]: 45.5%; inhibition of growth at 50 mg/kg [18]: 50%; Armyworm Mortality (%) [19]: 45%; mortality at 600 mg/kg [20]: 30%; mortality at 5 mg/kg [21]: 10%; mortality at 10 mg/kg [21]: 100%; mortality at 600 mg/kg [22]: 40% |
